Assays:
TAK1-TAB1 fusion protein = target: T1, TAK1-TAB1 fusion protein (Homo sapiens, UniProt O43318); experiment: In vitro TAK1 kinase assay (33P-ATP, casein substrate); assay type: biochemical; conditions: semi-quantitative score, at least two independent experiments
T1 construct: purchased Upstate 14-600
T1 sequence (O43318 with tags, fused parts or gaps limits assumed): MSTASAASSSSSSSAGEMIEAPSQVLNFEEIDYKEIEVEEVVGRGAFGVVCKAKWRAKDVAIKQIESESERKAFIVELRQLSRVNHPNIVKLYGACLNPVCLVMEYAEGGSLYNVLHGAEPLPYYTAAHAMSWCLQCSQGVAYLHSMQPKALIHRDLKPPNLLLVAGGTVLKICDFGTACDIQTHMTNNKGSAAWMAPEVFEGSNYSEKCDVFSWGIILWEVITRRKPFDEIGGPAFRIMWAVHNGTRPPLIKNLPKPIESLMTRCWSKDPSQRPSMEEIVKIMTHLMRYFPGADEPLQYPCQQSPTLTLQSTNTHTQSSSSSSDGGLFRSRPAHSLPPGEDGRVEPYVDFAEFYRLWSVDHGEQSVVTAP
Protocol: For assessing TAK1 inhibition, active TAK1-TAB1 fusion protein was used from Upstate (Cat. No, 14-600). Kinase reactions are set up in 96-well polypropylene plates in 25 μL containing 0.5 mU TAK1-TAB1 fusion protein, […], 0.01 μCi/μL [^33P]-γ-ATP, 0.1 mg/mL casein substrate in 1× reaction buffer containing 10 mM MOPS pH 7.0, 1 mM EDTA.
Starting from the compound master stocks (all at 10 mM concentration in 100% DMSO) a 3-fold serial dilution is made in 96-well plates in 100% DMSO. Plates are further diluted […] in H2O containing 3.5% DMSO, to obtain an intermediate work stock with compounds at 5× the final assay concentration in 5% DMSO.
5 μL of the intermediate stock is transferred into V-bottom 96 well polypropylene plates and 11 μL of Enzyme mix is added. Enzyme mix is made by combining 5 μL 5× reaction buffer ([…] pH 7.0, 1 mM EDTA), 5 μL casein (Sigma) diluted in H2O to 0.5 mg/mL and 1 μL of TAK1-TAB1 fusion protein that was prediluted to 0.5 mU/μL in 1× enzyme dilution buffer (20 mM MOPS pH 7.0, 0.1 mM EDTA, 0.01% Brij-35, 5% glycerol, 1 mM DTT, 1 mg/ml BSA).
The reactions are started by the addition of 9 μL of mixture containing ATP (20.83 uM) and [^33P]-γ-ATP (0.028 μCi/μL).
The assay is stopped 90 minutes after incubation at 30° C. by the addition of 25 μL phosphoric acid (150 mM). The label incorporated into the casein substrate is separated from labeled unincorporated ATP by filtration onto 96-well filter plates using a harvester device. After 6 washes with 75 mM phosphoric acid, the bottom of the filter plates are sealed, and incorporated label is quantified after addition of 40 μL scintillation fluid using TopCount.
Based on these percent inhibition data obtained in at least two independent experiments for the compounds, compounds are ranked using semi-quantitative scores. Table A below lists a number of compounds which have been or can be prepared according to the synthetic methods described herein. Semi-quantitative score: • *>3001 nM • ** 1001-3000 nM • *** 101-1000 nM • ****<100 nM

[1] = system: MMP1 expression from activated SFs (RASF); experiment: MMP assay: MMP1 expression (ELISA) by TNF-α-triggered RASFs; assay type: cell-based; conditions: RASF triggered with TNFα, MMP1 ELISA after 48 hrs, semi-quantitative score
Protocol: A 384-well format ELISA for measurement of MMP1 is developed. Various primary antibodies are tested, as well as various ELISA protocols. The following protocol is developed and validated to measure MMP1 levels in SF supernatant in 384 well plates: white Lumitrac 600 384 well plates (Greiner) are coated with 2 μg/mL anti-MMP1 antibody MAB1346 (Chemicon). The antibody is diluted in buffer 40 (1.21 g Tris base (Sigma), 0.58 g NaCl (Calbiochem) and 5 mL 10% NaN3 (Sigma) in 1 L milliQ water and adjusted to pH 8.5). After overnight incubation at 4° C., plates are washed with PBS (80 g NaCl, 2 g KCl (Sigma), 11.5 g Na2HPO4.7H2O and 2 g KH2PO4 in 10 L milliQ; pH 7.4) and blocked with 100 μL/well Casein buffer (2% Casein (VWR International) in PBS). Next day, casein buffer is removed from ELISA plates and replaced by 50 μL/well EC buffer (4 g casein, 2.13 g Na2HPO4 (Sigma), 2 g bovine albumin (Sigma), 0.69 g NaH2PO4.H2O (Sigma), 0.5 g CHAPS (Roche), 23.3 g NaCl, 4 mL 0.5 M EDTA pH 8 (Invitrogen), 5 mL 10% NaN3 in 1 L milliQ and adjusted to pH 7.0). 0.25 mM DTT (Sigma) is added to the thawed sample plates. After removal of the EC buffer, 20 μL of sample is transferred to the ELISA plates. After overnight incubation at 4° C. plates are washed twice with PBS and once with PBST (PBS with 0.05% Tween-20 (Sigma)) and incubated with 35 μL/well biotinylated anti-MMP1 antibody solution (R&D). This secondary antibody is diluted in buffer C (0.82 g NaH2PO4.H2O, 4.82 g Na2HPO4, 46.6 g NaCl, 20 g bovine albumin and 4 ml, 0.5M EDTA pH 8 in 2 L milliQ and adjusted to pH 7.0) at a concentration of 5 μg/mL. After 2 h of incubation at RT, plates are washed as described above and incubated with 50 μL/well streptavidin-HRP conjugate (Biosource). Streptavidin-HRP conjugate is diluted in buffer C at a concentration of 0.25 μg/mL. After 45 min, plates are washed as described above and incubated for 5 min with 50 μL/well BM Chem ELISA Substrate (Roche). Readout is performed on the Luminoscan Ascent Luminometer (Labsystems) with an integration time of 200 msec or with an Envision reader (Perkin Elmer).
SFs were acquired at passage 1 from a commercial supplier (Cell applications, Inc.). SFs are cultured in DMEM supplemented with 10% heat-inactivated FBS, 1× penicillin/streptomycin (Invitrogen) at 37° C., 10% CO2 until passage 6. Aliquots of the cells are frozen and cryopreserved in liquid nitrogen. Starting from a cryopreserved aliquot, cells are further expanded by sub-culturing cells at 1/3 ratio every week. Cells between passage 10 and 12 are routinely used in compound testing according to the following protocol.
Starting from the compound master stocks (all at 10 mM concentration in 100% DMSO) a 3-fold serial dilution is made in 96-well plates in 100% DMSO. Then, plates are further diluted 45-fold in M199 medium supplemented with 1% heat-inactivated FBS to obtain a intermediate work stock.
At day 1, RASFs are seeded in 96 well plates (flat bottom, tissue culture treated, Greiner) at a density of 3000 cells/well in complete synovial growth medium (Cell Applications). Day 5, the medium is completely removed from the cells, and replaced by 81 μL of M199 medium supplemented with 1% heat-inactivated FBS followed by addition of 10 μL compound out of the intermediate work stock. After an incubation period of 90 minutes, which allows the compounds to equilibrate and enter the cells, cells are stimulated with either TNF-α or ‘complex trigger’. TNF-α trigger is added in a volume of […] to obtain final concentration of 10 ng/mL. For that, TNF-α stock (PeproTech) at 10 μg/mL was diluted to 100 ng/mL TNF-α in M199 medium supplemented with 1% FBS. ‘Complex trigger’ mix is added in a volume of 20 μL to obtain a final concentration of 12.5%. For that, ‘complex trigger’ mix, is diluted to 80% with M199 medium supplemented with 1% FBS. […]

Row | IC50 (TAK1-TAB1 fusion protein) [µM] | EC50 [1] [µM] | Structure (SMILES)
1 | < 0.1 | > 3 | CCN1CCC[C@H]1CNC(=O)c1ccc(Nc2ccc(-c3ccc4c(c3)CNC4=O)n3ccnc23)cc1 [Compound 49, (S)-N-((1-ethylpyrrolidin-2-yl)methyl)-4-(5-(1-oxoisoindolin-5-yl)imidazo[1,2-a]pyridin-8-ylamino)benzamide]
2 | 0.101 to 1 | 0.101 to 1 | CCC(CC)N1CCN(c2ccc(Nc3ccc(-c4cc[nH]c(=O)c4)n4ccnc34)cc2)CC1 [Compound 87]
3 | 1 to 3 | 0.101 to 1 | c1cn2c(-c3cn[nH]c3)ccc(Nc3ccc(N4CCSCC4)cc3)c2n1 [Compound 111, [5-(1H-Pyrazol-4-yl)-imidazo[1,2-a]pyridin-8-yl]-(4-thiomorpholin-4-yl-phenyl)-amine]
4 | 0.101 to 1 | > 3 | CN1CCN(c2ccc(Nc3ccc(-c4ccc(C(N)=O)cc4)n4ccnc34)cc2F)CC1 [Compound 63]
5 | < 0.1 | 0.101 to 1 | CC(C)N1CCN(c2ccc(Nc3ccc(-c4ccc5c(c4)CNC5=O)n4ccnc34)cc2)CC1 [Compound 12, 5-{8-[4-(4-Isopropyl-piperazin-1-yl)-phenylamino]-imidazo[1,2-a]pyridin-5-yl}-2,3-dihydro-isoindol-1-one]
6 | 1 to 3 | 1 to 3 | Cc1cc(CNC(=O)c2ccc(Nc3ccc(-c4ccc5c(c4)CNC5=O)n4ccnc34)cc2)no1 [Compound 37, N-((5-methylisoxazol-3-yl)methyl)-4-(5-(1-oxoisoindolin-5-yl)imidazo[1,2-a]pyridin-8-ylamino)benzamide]
7 | 0.101 to 1 | > 3 | c1cn2c(-c3cn[nH]c3)ccc(Nc3ccc(N4CCN(C5CCC5)CC4)cc3)c2n1 [Compound 82]
8 | 0.101 to 1 | 1 to 3 | CC(C)CCN1CCN(c2ccc(Nc3ccc(-c4cc[nH]c(=O)c4)n4ccnc34)cc2)CC1 [Compound 86]
9 | 0.101 to 1 | 1 to 3 | CC(C)N1CCN(c2ccc(Nc3ccc(-c4cn[nH]c4)n4ccnc34)cc2F)CC1 [Compound 5, [3-Fluoro-4-(4-isopropyl-piperazin-1-yl)-phenyl]-[5-(1H-pyrazol-4-yl)-imidazo[1,2-a]pyridin-8-yl]-amine]
10 | 0.101 to 1 | 0.101 to 1 | CCCN1CCN(c2ccc(Nc3ccc(-c4cc[nH]c(=O)c4)n4ccnc34)cc2)CC1 [Compound 84]
11 | 1 to 3 | 0.101 to 1 | NC(=O)c1ccc(-c2ccc(Nc3ccc(N4CCOCC4)c(F)c3)c3nccn23)cc1 [Compound 66]

The remaining lines, values behind:

Row | Structure (SMILES) | IC50 (TAK1-TAB1 fusion protein) [µM] | EC50 [1] [µM]
12 | CCC(C)N1CCN(C(=O)c2ccc(Nc3ccc(-c4ccc5c(c4)CNC5=O)n4ccnc34)cc2)CC1 (stereo not drawn) [Compound 52, 5-(8-(4-(4-sec-butylpiperazine-1-carbonyl)phenylamino)imidazo [1,2-a]pyridin-5-yl)isoindolin-1-one] | 0.101 to 1 | > 3
13 | NC(=O)c1ccc(-c2ccc(Nc3ccc(N4CCN(C5CCC5)CC4)cc3)c3nccn23)cc1 [Compound 78] | 0.101 to 1 | > 3
14 | CC(=O)Nc1ccc(-c2ccc(Nc3ccc(N4CCN(C(C)C)CC4)cc3)c3nccn23)cc1 [Compound 70] | > 3 | > 3
15 | CS(=O)(=O)c1ccc(Nc2ccc(-c3ccc(C(N)=O)c(F)c3)n3ccnc23)cc1 [Compound 72] | 1 to 3 | 1 to 3
16 | CC1CN(c2ccc(Nc3ccc(-c4cc[nH]c(=O)c4)n4ccnc34)cc2)CC(C)N1 (stereo not drawn) [Compound 124, 4-{8-[4-(3,5-Dimethyl-piperazin-1-yl)-phenylamino]-imidazo[1,2-a]pyridin-5-yl}-1H-pyridin-2-one] | 0.101 to 1 | 1 to 3
17 | CC(C)N1CCN(c2ccc(Nc3ccc(-c4csc(C(N)=O)c4)n4ccnc34)cc2F)CC1 [Compound 9, 4-{8-[3-Fluoro-4-(4-isopropyl-piperazin-1-yl)-phenylamino]-imidazo[1,2-a]pyridin-5-yl}-thiophene-2-carboxylic acid amide] | 1 to 3 | 1 to 3
18 | O=C1NCc2cc(-c3ccc(Nc4ccc(S(=O)(=O)NC5CCNC5)cc4)c4nccn34)ccc21 (stereo not drawn) [Compound 32, 4-(5-(1-oxoisoindolin-5-yl)imidazo[1,2-a]pyridin-8-ylamino)-N-(pyrrolidin-3-yl)benzene sulfonamide] | 0.101 to 1 | > 3
19 | CC(C)N1CCN(c2ccc(Nc3ccc(-c4cccc5[nH]ccc45)n4ccnc34)cc2)CC1 [Compound 75] | 0.101 to 1 | > 3
20 | O=C1NCc2cc(-c3ccc(Nc4ccc(C(=O)N5CCC(N6CCCCC6)CC5)cc4)c4nccn34)ccc21 [Compound 46, 5-(8-(4-(1,4′-bipiperidine-1′-carbonyl)phenylamino)imidazo[1,2-a]pyridin-5-yl)isoindolin-1-one] | < 0.1 | > 3
21 | CCN(CC)CCNS(=O)(=O)c1ccc(Nc2ccc(-c3ccc4c(c3)CNC4=O)n3ccnc23)cc1 [Compound 22, N-(2-(diethylamino)ethyl)-4-(5-(1-oxoisoindolin-5-yl)imidazo[1,2-a]pyridin-8-ylamino)benzene sulfonamide] | 0.101 to 1 | 1 to 3
